These results are taken from patent publication US20260183274A1, “PDK1 REGULATORY COMPOUND AND COMPOSITION CONTAINING THE SAME” (PROVIBIO CO., LTD., priority 2024, published 2026).

The structures appear in SMILES notation.

Series [1] relates to T cells isolated from mouse spleens. Description: T cell proliferation inhibition (CFSE flow cytometry, anti-CD3/anti-CD28 stimulation). In kind it is cell-based. The note with it: mouse spleen T cells, 3 days; for inhibition at 0.01 µM / inhibition at 0.1 µM / inhibition at 1 µM / inhibition at 10 µM / inhibition at 30 µM / inhibition at 50 µM: Mus musculus, T-cell, 72 h, read-out: Proliferation inhibition rate (%). An outline of the steps:
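Splenic T cells from 7-week-old C57BL/6 mice were MACS-isolated, CFSE-labelled, seeded at 2×10^5 cells/well and activated with anti-CD3/anti-CD28 (0.5 μg/mL each). Compound at 10 nM–50 μM (six levels, triplicate) was present for 3 days at 37 °C before flow cytometric readout of proliferation inhibition rate.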

For series [2], the system named is Human B Lymphocyte cell line, SU-DHL-8. The series can be described thus: Relative cell viability CCK-8, SU-DHL-8. In kind it is cell-based. The following applies: for viability at 1 µM / viability at 10 µM / viability at 30 µM / viability at 50 µM: Homo sapiens, SU-DHL-8, 48 h; for viability at 1 µM: read-out: Relative cell viability (%), SU-DHL-8, 1 μM; for viability at 10 µM: read-out: Relative cell viability (%), SU-DHL-8, 10 μM; for viability at 30 µM: read-out: Relative cell viability (%), SU-DHL-8, 30 μM; for viability at 50 µM: read-out: Relative cell viability (%), SU-DHL-8, 50 μM. An outline of the steps:
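Cells grown in RPMI-1640 with 10% FBS, treated with compound at several concentrations, then given CCK-8 for 4 h at 37° C. Viability expressed as percent of DMSO-treated cells.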

The mark [3] stands for this setting: 1 μM, 48 hours, untreated (DMSO) = 100%.
Where [4] appears, read: 10 μM, 48 hours, untreated (DMSO) = 100%.
Setting [5] is: 30 μM, 48 hours, untreated (DMSO) = 100%.
[6] abbreviates: 50 μM, 48 hours, untreated (DMSO) = 100%.
Where [7] appears, read: 48 hours, untreated (DMSO) = 100%.

On to `Nc1ncccc1C(=O)NCCCCCCCCCCCCN1CCC(Oc2ccncc2)CC1` [Compound 38, 2-Amino-N-(12-(4-(pyridin-4-yloxy)piperidin-1-yl)dodecyl) nicotinamide], for which the “Proliferation inhibition rate (%)” value in series [1] (compound 10 nM) was −33.51%; in series [1] (compound 100 nM) it was 100.00%; in series [1] (compound 1 μM), 100.00%; in series [1] (compound 10 μM) it was 100.00%; in series [1] (compound 30 μM) it was 100.00%; in series [1] (compound 50 μM), 100.00%. For the same molecule, the “Relative cell viability (%), SU-DHL-8” value in series [2] (setting [3]) is recorded as 4.16%; in series [2] (setting [4]), 3.30%; in series [2] (setting [5]), 1.79%; in series [2] (setting [6]) it was 1.42%.
The viability is a per cent measure of how many cells are alive, often set against a control. As for `O=C(NCCCCCCCCCCCCF)c1cccnc1S` [Compound 62, N-(12-fluoro-dodecyl)-2-mercapto-nicotinamide], in series [1] (compound 10 nM), the inhibition at 0.01 µM was determined as 0%. In addition, the inhibition at 0.1 µM in series [1] (compound 100 nM) came out at 0%. For the same molecule, the inhibition at 1 µM in series [1] (compound 1 μM) is 0%. Besides, the inhibition at 10 µM in series [1] (compound 10 μM) is -18.5%. For the same molecule, the inhibition at 30 µM in series [1] (compound 30 μM) amounted to 100%. The inhibition at 50 µM in series [1] (compound 50 μM) was 100%. Further, in series [2] (setting [7]), the viability at 1 µM came to 32.5%, the viability at 10 µM was found to be 24.9%, the viability at 30 µM was 22.9% and the viability at 50 µM came to 19.3%.
As to `CC1CCN(CCCCCCCCCCCCNC(=O)c2cccnc2N)C1` (stereo not shown) [Compound 24, 2-Amino-N-(12-(3-methylpyrrolidin-1-yl)dodecyl) nicotinamide], the “Proliferation inhibition rate (%)” value in series [1] (compound 10 nM) was −7.33%; in series [1] (compound 100 nM), 100.00%; in series [1] (compound 1 μM) it was 100.00%; in series [1] (compound 10 μM) it was 100.00%; in series [1] (compound 30 μM) it was 100.00%; in series [1] (compound 50 μM) it was 100.00%. For the same molecule, the “Relative cell viability (%), SU-DHL-8” value came out at 8.38% in series [2] (setting [3]), 1.65% in series [2] (setting [4]) and 0.62% in series [2] (setting [5]).
On to `C[C@H]1CNCCN1CCCCCCCCCCCCNC(=O)c1cccnc1N.Cl` [Compound 37, (S)-2-Amino-N-(12-(2-methylpiperazin-1-yl)dodecyl) nicotinamide hydrochloride], for which the “Proliferation inhibition rate (%)” value in series [1] (compound 10 nM) was −4.14%; in series [1] (compound 100 nM), 33.33%; in series [1] (compound 1 μM), 100.00%; in series [1] (compound 10 μM), 100.00%; in series [1] (compound 30 μM), 100.00%; in series [1] (compound 50 μM) it was 100.00%. Besides, the “Relative cell viability (%), SU-DHL-8” value came to 6.38% in series [2] (setting [3]), 4.45% in series [2] (setting [4]), 3.17% in series [2] (setting [5]) and 2.32% in series [2] (setting [6]).
`CC1CN(CCCCCCCCCCCCNC(=O)c2cccnc2N)CC(C)O1` (stereo not shown) [Compound 21, 2-Amino-N-(12-(2,6-dimethylmorpholino)dodecyl) nicotinamide]: the “Proliferation inhibition rate (%)” value is listed as −13.87% in series [1] (compound 10 nM); 100.00% in series [1] (compound 100 nM); 100.00% in series [1] (compound 1 μM); 100.00% in series [1] (compound 10 μM); 100.00% in series [1] (compound 30 μM); 100.00% in series [1] (compound 50 μM). Moreover, the “Relative cell viability (%), SU-DHL-8” value in series [2] (setting [3]) is on record as 9.64%; in series [2] (setting [4]) it was 7.68%; in series [2] (setting [5]), 3.70%.
With `Nc1ncccc1C(=O)NCCCCCCCCCCCCN1CCCCC1` [Compound 18, 2-amino-N-(12-(piperidin-1-yl)dodecyl)nicotinamide], the inhibition at 0.01 µM in series [1] (compound 10 nM) was 1.87%. Besides, in series [1] (compound 100 nM), the inhibition at 0.1 µM was determined as 76.1%. Also, in series [1] (compound 1 μM), the inhibition at 1 µM turned out to be 100%. Further, in series [1] (compound 10 μM), the inhibition at 10 µM was determined as 100%. In addition, the inhibition at 30 µM in series [1] (compound 30 μM) amounted to 100%. The inhibition at 50 µM in series [1] (compound 50 μM) worked out at 100%. Also, in series [2] (setting [7]), the viability at 1 µM was 5.28%, the viability at 10 µM was found to be 4.5%, the viability at 30 µM came out at 4.09% and the viability at 50 µM was 3.44%.
Take `Cl.O=C(NCCCCCCCCCCCCN1CCNCC1)c1ccc(-c2ccccc2)o1` [Compound 90, 5-Phenyl-N-(12-(piperazin-1-yl)dodecyl) furan-2-carboxamide hydrochloride]: the “Proliferation inhibition rate (%)” value in series [1] (compound 10 nM) is recorded as −8.27%; in series [1] (compound 100 nM), −2.03%; in series [1] (compound 1 μM), 66.18%; in series [1] (compound 10 μM) it was 100.00%; in series [1] (compound 30 μM) it was 100.00%; in series [1] (compound 50 μM), 100.00%. Besides, the “Relative cell viability (%), SU-DHL-8” value was determined as 7.19% in series [2] (setting [3]), 5.94% in series [2] (setting [4]), 2.48% in series [2] (setting [5]) and 1.94% in series [2] (setting [6]).
Turning to `CC1(C)CCN(CCCCCCCCCCCCNC(=O)c2cccnc2N)C1` [Compound 22, 2-Amino-N-(12-(3,3-dimethylpyrrolidin-1-yl)dodecyl) nicotinamide], the “Proliferation inhibition rate (%)” value is reported as −0.80% in series [1] (compound 10 nM); 100.00% in series [1] (compound 100 nM); 100.00% in series [1] (compound 1 μM); 100.00% in series [1] (compound 10 μM); 100.00% in series [1] (compound 30 μM); 100.00% in series [1] (compound 50 μM). Besides, the “Relative cell viability (%), SU-DHL-8” value in series [2] (setting [3]) is recorded as 6.46%; in series [2] (setting [4]) it was 2.85%; in series [2] (setting [5]), 2.45%; in series [2] (setting [6]) it was 1.67%.
Take `COc1ccc(CN2CCN(CCCCCCCCCCCCNC(=O)c3cccnc3N)CC2)cc1` [Compound 28, 2-Amino-N-(12-(4-(4-methoxybenzyl)piperazin-1-yl)dodecyl)nicotinamide]: the inhibition at 0.01 µM in series [1] (compound 10 nM) is -0.27%. The inhibition at 0.1 µM in series [1] (compound 100 nM) was found to be 100%. In addition, in series [1] (compound 1 μM), the inhibition at 1 µM amounted to 100%. In addition, the inhibition at 10 µM in series [1] (compound 10 μM) is 100%. Also, the inhibition at 30 µM in series [1] (compound 30 μM) came out at 100%. Further, in series [1] (compound 50 μM), the inhibition at 50 µM was 100%. In addition, in series [2] (setting [7]), the viability at 1 µM turned out to be 5.46%, the viability at 10 µM was determined as 2.82% and the viability at 30 µM was determined as 0.33%. For the same molecule, in series [2] (human, 48 h, 50 µM), the “Relative cell viability (%), SU-DHL-8” value is −1.55%.
Take `Nc1ncccc1C(=O)NCCCCCCCCCCCCN1CCCC1` [Compound 20, 2-Amino-N-(12-(pyrrolidin-1-yl)dodecyl)nicotinamide]: the inhibition at 0.01 µM in series [1] (compound 10 nM) came out at 3.46%. The inhibition at 0.1 µM in series [1] (compound 100 nM) was found to be 100%. The inhibition at 1 µM in series [1] (compound 1 μM) is 100%. The inhibition at 10 µM in series [1] (compound 10 μM) amounted to 100%. For the same molecule, the inhibition at 30 µM in series [1] (compound 30 μM) was found to be 100%. The inhibition at 50 µM in series [1] (compound 50 μM) was found to be 100%. In addition, in series [2] (setting [7]), the viability at 1 µM stood at 7.74%, the viability at 10 µM was determined as 5.34%, the viability at 30 µM is 4.89% and the viability at 50 µM was determined as 3.68%.
Regarding `CC1CN(C(=O)OC(C)(C)C)C(C)CN1CCCCCCCCCCCCNC(=O)c1cccnc1N` (stereo not shown) [Compound 30, tert-Butyl 4-(12-(2-aminonicotinamido)dodecyl)-2,5-dimethylpiperazine-1-carboxylate], in series [1] (compound 10 nM), the inhibition at 0.01 µM is 1.34%. The inhibition at 0.1 µM in series [1] (compound 100 nM) turned out to be 100%. Also, the inhibition at 1 µM in series [1] (compound 1 μM) is 100%. Also, in series [1] (compound 10 μM), the inhibition at 10 µM came out at 100%. Moreover, in series [1] (compound 30 μM), the inhibition at 30 µM is 100%. Besides, the inhibition at 50 µM in series [1] (compound 50 μM) was 100%. Further, in series [2] (setting [7]), the viability at 1 µM was found to be 7.9%, the viability at 10 µM was 2.6%, the viability at 30 µM is 1.86% and the viability at 50 µM came to 1.06%.
With `Nc1nc(NC(=O)CCCCCCCCCCCCN2CCNCC2)nc2nc[nH]c12` [Compound 8, 12-(piperazin-1-yl)dodecyl-N-(6-aminopurine-2-yl) carboxamide], the inhibition at 0.01 µM in series [1] (compound 10 nM) turned out to be 4.55%. In addition, in series [1] (compound 100 nM), the inhibition at 0.1 µM came to 32.5%. Moreover, in series [1] (compound 1 μM), the inhibition at 1 µM was 100%. For the same molecule, the inhibition at 10 µM in series [1] (compound 10 μM) turned out to be 100%. Also, in series [1] (compound 30 μM), the inhibition at 30 µM is 100%. Moreover, the inhibition at 50 µM in series [1] (compound 50 μM) came to 100%. In series [2] (setting [7]), the viability at 1 µM stood at 10.8%, the viability at 10 µM was 6.49%, the viability at 30 µM was determined as 5.07% and the viability at 50 µM turned out to be 4.49%.
